Source: publication PMC8977642, “Unsupervised Mining of HLA-I Peptidomes Reveals New Binding Motifs and Potential False Positives in the Community Database” (Frontiers in Immunology, 2022)

The sequences below were run against HLA-B*14:02 (Homo sapiens, UniProt P01889, A93T/A95T/C349S/D138N/D201E/E187T/E204Q/H137Y/K202T/Q94N/R155S/R180L/S121W/S35A/Y140F/Y195H/Y91C) (assay: REVEAL MHC-peptide binding assay (ProImmune)). Settings: REVEAL MHC-peptide binding assay, versus positive control.
From the text: To test whether outlier peptides identified by unsupervised motif clustering are false positives or true ligands with very weak binding affinity, we performed an HLA binding assay on 59 newly identified antigens for HLA-B*14:02 ( Supplementary Table 3 , 13 outliers and 46 non-outlier peptides). […] For LPFCRPGPEGQL, this peptide was likely called an outlier because the middle arginine residue was not predicted to take part in the 9-mer binding motif by NetMHCpan (the predicted core motif was LPFGPEGQL).
Figure 3 HLA binding assay for HLA-B*14:02. Peptide synthesis and binding assay were performed by ProImmune, Ltd. (see Methods). (A) Distributions of binding scores, measured as the percentages of the binding activity compared to a positive control, for clustered peptides (n = 46) and outlier peptides (n = 13). (B) Comparison of predicted percentage ranks of eluted ligand (% rank) and binding scores. The orange and red dashed lines indicate the 2% rank and 0.5% rank thresholds for weak and strong binders, respectively.
The binding activities of selected 59 newly identified candidate antigens for HLA-B*14:02 ( Supplementary Table 3 ) were assessed using the REVEAL MHC-peptide binding assay provided by ProImmune, Ltd. (Oxford, UK). Peptides were synthesized and quality checked using MALDI-TOF mass spectrometry by ProImmune, Ltd. (Oxford, UK). Binding activities were reported as percentage relative to the affinity of a positive control (a known high-affinity T cell epitope for HLA-B*14:02). According to the experiment report provided by the company, the standard error of the reported affinities is 3 percentage points.

| Sequence | HLA binding activity (in words) |
| --- | --- |
| LPFCRPGPEGQL [candidate antigen for HLA-B*14:02, outlier] | high binding affinity |
| LRNGGHFVI [candidate antigen for HLA-B*14:02, outlier] | high binding affinity |

Same assay, conditions: relative to a known high-affinity T cell epitope for HLA-B*14:02; synthesized peptides; standard error 3 percentage points

| Sequence | Binding Test (binding activity as percentage of positive control) |
| --- | --- |
| AAPARVSVA [candidate antigen for HLA-B*14:02, outlier] | 0.2% |
| AQGGVLPNI [candidate antigen for HLA-B*14:02, outlier] | 0.2% |
| AVSMIPPLLL [candidate antigen for HLA-B*14:02, outlier] | 0.2% |
| CDFVHQAL [candidate antigen for HLA-B*14:02, non-outlier] | 41.7% |
| CEVTHQGL [candidate antigen for HLA-B*14:02, non-outlier] | 25.4% |
| CHIYHHAL [candidate antigen for HLA-B*14:02, non-outlier] | 55.5% |
| CQVTHISL [candidate antigen for HLA-B*14:02, non-outlier] | 56.7% |
| CRFEGQFSI [candidate antigen for HLA-B*14:02, non-outlier] | 63.5% |
| CVTIHEAL [candidate antigen for HLA-B*14:02, non-outlier] | 32.1% |
| DLPEHAVL [candidate antigen for HLA-B*14:02, non-outlier] | 14.2% |
| DNAVHCVI [candidate antigen for HLA-B*14:02, non-outlier] | 26.2% |
| DQFLKICL [candidate antigen for HLA-B*14:02, non-outlier] | 62.6% |
| DQVGGLGR [candidate antigen for HLA-B*14:02, non-outlier] | 0.2% |
| DQYKRETI [candidate antigen for HLA-B*14:02, non-outlier] | 33.9% |
| DRYLPGETF [candidate antigen for HLA-B*14:02, non-outlier] | 61.4% |
| ESGPSIVHRKCF [candidate antigen for HLA-B*14:02, outlier] | 0.1% |
| ETASDLLLHSAL [candidate antigen for HLA-B*14:02, non-outlier] | 59.3% |
| FGYSRHTPF [candidate antigen for HLA-B*14:02, non-outlier] | 24.8% |
| GLGILDPVLL [candidate antigen for HLA-B*14:02, non-outlier] | 0.1% |
| HPASHPEL [candidate antigen for HLA-B*14:02, non-outlier] | 29.9% |

| Sequence | Binding Test (binding activity as percentage of positive control) |
| --- | --- |
| HQITHQAM [candidate antigen for HLA-B*14:02, non-outlier] | 52.4% |
| IHTLVESL [candidate antigen for HLA-B*14:02, non-outlier] | 0.2% |
| IRLENEIQ [candidate antigen for HLA-B*14:02, non-outlier] | 0.1% |
| LGFTHHCL [candidate antigen for HLA-B*14:02, non-outlier] | 47.6% |
| LLSPQQTI [candidate antigen for HLA-B*14:02, non-outlier] | 0.8% |
| LNQRAQAVL [candidate antigen for HLA-B*14:02, outlier] | 3.1% |
| LNVLHLDT [candidate antigen for HLA-B*14:02, non-outlier] | 5% |
| LPFCHSEL [candidate antigen for HLA-B*14:02, non-outlier] | 60.2% |
| LPFCRPGPEGQL [candidate antigen for HLA-B*14:02, outlier] | 75.9% |
| LPIIHCTL [candidate antigen for HLA-B*14:02, non-outlier] | 56.4% |
| LRNGGHFVI [candidate antigen for HLA-B*14:02, outlier] | 61.2% |
| LSSLSLPILI [candidate antigen for HLA-B*14:02, outlier] | 0.1% |
| LSYVSIMAAI [candidate antigen for HLA-B*14:02, non-outlier] | 0.2% |
| LTGDIHAITAA [candidate antigen for HLA-B*14:02, outlier] | 0.2% |
| NQFQRQAAV [candidate antigen for HLA-B*14:02, non-outlier] | 63.6% |
| PLGMNQLQAL [candidate antigen for HLA-B*14:02, non-outlier] | 0.3% |
| QAYMNQRKL [candidate antigen for HLA-B*14:02, non-outlier] | 0.2% |
| QEVKQGKLL [candidate antigen for HLA-B*14:02, non-outlier] | 0.1% |
| QGLSILLPKI [candidate antigen for HLA-B*14:02, outlier] | 0% |
| QPAEHLQL [candidate antigen for HLA-B*14:02, non-outlier] | 49.4% |

| Sequence | Binding Test (binding activity as percentage of positive control) |
| --- | --- |
| QQFAHPPL [candidate antigen for HLA-B*14:02, non-outlier] | 82.8% |
| QQGTHLSL [candidate antigen for HLA-B*14:02, non-outlier] | 47.7% |
| QQILRDAL [candidate antigen for HLA-B*14:02, non-outlier] | 56.2% |
| QQLCHQTL [candidate antigen for HLA-B*14:02, non-outlier] | 56.8% |
| QTWWHGVL [candidate antigen for HLA-B*14:02, non-outlier] | 74.6% |
| QVWGTLTSL [candidate antigen for HLA-B*14:02, non-outlier] | 0.1% |
| REQFSSRGS [candidate antigen for HLA-B*14:02, outlier] | 0% |
| SCRVHKII [candidate antigen for HLA-B*14:02, non-outlier] | 8.3% |
| SPTCHACL [candidate antigen for HLA-B*14:02, non-outlier] | 19.8% |
| SQYQRLLCI [candidate antigen for HLA-B*14:02, non-outlier] | 80.3% |
| SRLDSVLLL [candidate antigen for HLA-B*14:02, non-outlier] | 43.9% |
| SSSKGSLGGGF [candidate antigen for HLA-B*14:02, non-outlier] | 0.2% |
| TRIEKRIVI [candidate antigen for HLA-B*14:02, non-outlier] | 54.9% |
| TYDDATKTF [candidate antigen for HLA-B*14:02, outlier] | 0.1% |
| TYDDATKTFTVTE [candidate antigen for HLA-B*14:02, non-outlier] | 0% |
| VAPGKDLTK [candidate antigen for HLA-B*14:02, non-outlier] | 0% |
| YATLHHVI [candidate antigen for HLA-B*14:02, non-outlier] | 42.2% |
| YQILHECL [candidate antigen for HLA-B*14:02, non-outlier] | 50.1% |
